Test results: patent publication US9133104B2 (Chroma Therapeutics Ltd., priority 2005, dated 2015)

Legend:
HUT cancer cell line = experiment: Cell inhibition assay (SRB cell viability), HUT; assay type: cell-based; conditions: HUT cells, 72 h, IC50 range
Protocol: (§1) The corresponding cancer cell lines (Hela, U937 and HUT) growing in log phase were harvested and seeded at 1000 cells/well (200 ul final volume) into 96-well tissue culture plates. Following 24 h of cell growth cells were treated with compounds (final concentration of 20 uM). Plates were then re-incubated for a further 72 h before a sulphorhodamine B (SRB) cell viability assay was conducted according to Skehan 1990 J Natl Canc Inst 82, 1107-1112.
(§2) Data were expressed as a percentage inhibition of the control, measured in the absence of inhibitor, as follows:— % inhibition=100−((S^i/S^o)×100) where S^i is the signal in the presence of inhibitor and S^o is the signal in the presence of DMSO. IC50 values were determined by non-linear regression analysis, after fitting the results of eight data points to the equation for sigmoidal dose response with variable slope (% activity against log concentration of compound), using Graphpad Prism software. […] NT=Not tested

U937 cancer cell line = experiment: Cell inhibition assay (SRB cell viability), U937; assay type: cell-based; conditions: 72 h, IC50 range
Protocol: as §1, §2

[1] = biological target: T1, histone deacetylase activity (HeLa nuclear extract); experiment: HDAC fluorescent activity assay (Biomol Fluor de Lys), HeLa nuclear extract; assay type: biochemical; conditions: Fluor de Lys substrate, IC50 range
T1 construct: Histone deacetylase activity from crude nuclear extract derived from HeLa cells was used for screening
Method in brief: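 Crude HeLa nuclear extract (20 mM Hepes, 100 mM KCl, 0.2 mM EDTA, 0.5 mM DTT, 0.2 mM PMSF, 20% glycerol) incubated with acetyl-lysine Fluor de Lys substrate ± inhibitor; developer generates fluorophore. Background-subtracted % of vehicle control; IC50 from eight-point variable-slope sigmoidal fit.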

Hela cancer cell line = experiment: Cell inhibition assay (SRB cell viability), Hela; assay type: cell-based; conditions: 72 h, Hela cells, IC50 range
Method in brief: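 Log-phase Hela, U937 and HUT cells were seeded at 1000 cells/well, grown 24 h, then exposed to compound (20 uM final) for 72 h. Viability was read by sulphorhodamine B staining and expressed as % inhibition relative to DMSO control. IC50 values came from sigmoidal variable-slope fits of eight concentrations.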

[2] = Homo sapiens, U-937, U937 cells

Row | SMILES | IC50 (HUT cancer cell line) [nM] | IC50 (U937 cancer cell line; [2]) [nM] | IC50 [1] [nM] | IC50 (Hela cancer cell line; Homo sapiens, HeLa) [nM] | IC50 (Hela cancer cell line) [nM] | IC50 (U937 cancer cell line; U937 cells) [nM]
1 | O=C(CCCCCCC(=O)Nc1ccc(C(=O)N[C@H](C(=O)OC2CCCC2)c2ccccc2)cc1)NO [Compound 17, (S)-[4-(7-Hydroxycarbamoyl-heptanoylamino)-benzoylamino]-phenyl-acetic acid cyclopentyl ester] | 330 to 3300 | 330 to 3300 | 101 to 1000 | > 3300 | – | –
2 | CCOC(=O)[C@H](Cc1ccccc1)NC(=O)C1CCCN1C(=O)CCCCCCC(=O)NO (stereo partly drawn) [Compound 55, (S)-2-{[1-(7-Hydroxycarbamoyl-heptanoyl)-pyrrolidine-2-carbonyl]-amino}-3-phenyl-propionic acid ethyl ester] | > 3300 | > 3300 | > 1000 | > 3300 | – | –
3 | COc1ccc2[nH]c3c(c2c1)CCN(C(=O)CCCCCCC(=O)NO)C3C(=O)N[C@H](C(=O)O)c1ccccc1 (stereo partly drawn) [Compound 12, (S)-{[2-(7-Hydroxycarbamoyl-heptanoyl)-6-methoxy-2,3,4,9-tetrahydro-1H-beta-carboline-1-carbonyl]-amino}-phenyl-acetic acid] | > 3300 | > 3300 | 101 to 1000 | > 3300 | – | –
4 | CC(C)C[C@H](NC(=O)c1cccc(NC(=O)CCCCCCC(=O)NO)c1)C(=O)OC1CCCC1 [Compound 62, (S)-2-[3-(7-Hydroxycarbamoyl-heptanoylamino)-benzoylamino]-4-methyl-pentanoic acid cyclopentyl ester] | 330 to 3300 | > 3300 | 101 to 1000 | > 3300 | – | –
5 | CC(OC(C)(C)C)[C@H](NCc1ccc(CNCc2ccc3cc(C(=O)NO)sc3c2)cc1)C(=O)OC1CCCC1 (stereo partly drawn) [Compound 108, (S)-3-tert-Butoxy-2-(4-{[(2-hydroxycarbamoyl-benzo[b]thiophen-6-ylmethyl)-amino]-methyl}-benzylamino)-butyric acid cyclopentyl ester] | 330 to 3300 | 330 to 3300 | 101 to 1000 | 330 to 3300 | – | –
6 | O=C(NO)c1cc2ccc(CNCc3ccc(CN[C@H](C(=O)OC4CCCC4)C4CCCCC4)cc3)cc2s1 [Compound 116, (S)-Cyclohexyl-(4-{[(2-hydroxycarbamoyl-benzo[b]thiophen-6-ylmethyl)-amino]-methyl}-benzylamino)-acetic acid cyclopentyl ester] | > 3300 | 330 to 3300 | 101 to 1000 | > 3300 | – | –
7 | CC(C)(C)OC[C@H](NCc1cccc(NCc2ccc3cc(C(=O)NO)sc3c2)c1)C(=O)OC1CCCC1 [Compound 132, (S)-3-tert-Butoxy-2-{3-[(2-hydroxycarbamoyl-benzo[b]thiophen-6-ylmethyl)-amino]-benzylamino}-propionic acid cyclopentyl ester] | 330 to 3300 | 330 to 3300 | 101 to 1000 | > 3300 | – | –
8 | O=C(CCCCCCC(=O)Nc1cccc(OCCCN[C@@H](Cc2ccccc2)C(=O)OC2CCCC2)c1)NO [Compound 75, (S)-2-{3-[3-(7-Hydroxycarbamoyl-heptanoylamino)-phenoxy]-propylamino}-3-phenyl-propionic acid cyclopentyl ester] | < 330 | < 330 | < 100 | 330 to 3300 | – | –
9 | O=C(CCCCCCC(=O)Nc1ccc(CN[C@H](C(=O)OC2CCCC2)C2CCCCC2)cc1)NO [Compound 86, (S)-Cyclohexyl-[4-(7-hydroxycarbamoyl-heptanoylamino)-benzylamino]-acetic acid cyclopentyl ester] | 330 to 3300 | < 330 | 101 to 1000 | > 3300 | – | –
10 | O=C(CCCCCCC(=O)N1Cc2ccccc2C[C@H]1C(=O)N[C@H](C(=O)OC1CCCC1)c1ccccc1)NO [Compound 44, (S)-{[(S)-2-(7-Hydroxycarbamoyl-heptanoyl)-1,2,3,4-tetrahydro-isoquinoline-3-carbonyl]-amino}-phenyl-acetic acid cyclopentyl ester] | 330 to 3300 | 330 to 3300 | 101 to 1000 | > 3300 | – | –
11 | COc1ccc2[nH]c3c(c2c1)CCN(C(=O)CCCCCCC(=O)NO)C3C(=O)N[C@H](C(=O)OC1CCCC1)c1ccccc1 (stereo partly drawn) [Compound 11, (S)-{[2-(7-Hydroxycarbamoyl-heptanoyl)-6-methoxy-2,3,4,9-tetrahydro-1H-beta-carboline-1-carbonyl]-amino}-phenyl-acetic acid cyclopentyl ester] | 330 to 3300 | 330 to 3300 | 101 to 1000 | – | 330 to 3300 | –
12 | O=C(CCCCCCC(=O)Nc1cccc(OCCN[C@@H](Cc2ccccc2)C(=O)OC2CCCC2)c1)NO [Compound 73, (S)-2-{2-[3-(7-Hydroxycarbamoyl-heptanoylamino)-phenoxy]-ethylamino}-3-phenyl-propionic acid cyclopentyl ester] | 330 to 3300 | < 330 | < 100 | 330 to 3300 | – | –
13 | O=C(NO)c1cc2ccc(CNc3cccc(CN[C@H](C(=O)OC4CCCC4)C4CCCCC4)c3)cc2s1 [Compound 131, (S)-{3-[(2-Hydroxycarbamoyl-benzo[b]thiophen-6-ylmethyl)-amino]-benzylamino}-cyclohexyl-acetic acid cyclopentyl ester] | > 3300 | 330 to 3300 | > 1000 | > 3300 | – | –
14 | O=C(CCCCCCC(=O)N1Cc2[nH]c3ccccc3c2C[C@H]1C(=O)N[C@@H](Cc1ccccc1)C(=O)O)NO [Compound 8, (S)-2-{[(S)-2-(7-Hydroxycarbamoyl-heptanoyl)-2,3,4,9-tetrahydro-1H-beta-carboline-3-carbonyl]-amino}-3-phenyl-propionic acid] | > 3300 | > 3300 | 101 to 1000 | > 3300 | – | –
15 | COc1ccc2[nH]c3c(c2c1)CCN(C(=O)CCCCCCC(=O)NO)C3C(=O)N[C@H](C(=O)O)c1ccccc1 (stereo partly drawn) [Compound 14, (S)-{[2-(7-Hydroxycarbamoyl-heptanoyl)-6-methoxy-2,3,4,9-tetrahydro-1H-beta-carboline-1-carbonyl]-amino}-phenyl-acetic acid] | > 3300 | – | 101 to 1000 | – | > 3300 | > 3300
16 | O=C(CCCCCCC(=O)Nc1cccc(OCCCC(=O)N[C@H](C(=O)OC2CCCC2)c2ccccc2)c1)NO [Compound 92, (S)-{4-[3-(7-Hydroxycarbamoyl-heptanoylamino)-phenoxy]-butyrylamino}-phenyl-acetic acid cyclopentyl ester] | 330 to 3300 | 330 to 3300 | < 100 | 330 to 3300 | – | –
17 | O=C(NO)c1cc2ccc(CNCc3ccc(CN4CCC[C@H]4C(=O)OC4CCCC4)cc3)cc2s1 [Compound 111, (S)-1-(4-{[(2-Hydroxycarbamoyl-benzo[b]thiophen-6-ylmethyl)-amino]-methyl}-benzyl)-pyrrolidine-2-carboxylic acid cyclopentyl ester] | < 330 | < 330 | < 100 | < 330 | – | –
18 | O=C(CCCCCCC(=O)N1CCc2ccc(C(=O)N[C@H](C(=O)OC3CCCC3)c3ccccc3)cc2C1)NO [Compound 15, (S)-{[2-(7-Hydroxycarbamoyl-heptanoyl)-1,2,3,4-tetrahydro-isoquinoline-7-carbonyl]-amino}-phenyl-acetic acid cyclopentyl ester] | 330 to 3300 | 330 to 3300 | > 1000 | > 3300 | – | –
19 | CCOC(=O)[C@@H](NC(=O)[C@@H]1Cc2ccccc2CN1C(=O)CCCCCCC(=O)NO)c1ccccc1 [Compound 46, (S)-{[(S)-2-(7-Hydroxycarbamoyl-heptanoyl)-1,2,3,4-tetrahydro-isoquinoline-3-carbonyl]-amino}-phenyl-acetic acid ethyl ester] | 330 to 3300 | 330 to 3300 | > 1000 | > 3300 | – | –
20 | O=C(CCCCCCC(=O)N1CCCC1C(=O)N[C@@H](Cc1ccccc1)C(=O)OC1CCCC1)NO (stereo partly drawn) [Compound 56, (S)-2-{[1-(7-Hydroxycarbamoyl-heptanoyl)-pyrrolidine-2-carbonyl]-amino}-3-phenyl-propionic acid cyclopentyl ester] | > 3300 | > 3300 | > 1000 | > 3300 | – | –
21 | O=C(CCCCCCC(=O)Nc1cccc(CN[C@H](C(=O)OC2CCCC2)c2ccccc2)c1)NO [Compound 36, (S)-[3-(7-Hydroxycarbamoyl-heptanoylamino)-benzylamino]-phenyl-acetic acid cyclopentyl ester] | 330 to 3300 | < 330 | < 100 | 330 to 3300 | – | –
22 | CC(C)(C)OC[C@H](NCc1ccc(CNCc2ccc3cc(C(=O)NO)sc3c2)cc1)C(=O)OC1CCCC1 [Compound 109, (S)-3-tert-Butoxy-2-(4-{[(2-hydroxycarbarnoyl-benzo[b]thiophen-6-ylmethyl)-amino]-methyl}-benzylamino)-propionic acid cyclopentyl ester] | 330 to 3300 | < 330 | < 100 | 330 to 3300 | – | –
